From US12594265B2, “Methods and compositions for inhibition of STAT3” (Ohio State Innovation Foundation, priority 2017, dated 2026)
Like-named read-outs stand apart in the source and are kept apart here.

Experiments:
[1] = tested on: EAE model of MS; test: T cell encephalitogenicity in adoptive transfer after in vitro treatment of the cells; assay type: in vivo; parameters: dose or concentration left out as unconfirmed; details: cells activated 3 days, then transferred into naïve B10PL mice
Procedure: EAE Induction. Immunization: 8-10 week old B6/WT or SJL/WT mice were s.c. injected over four sites in the flank with 200 μg MOG 35-55 or […] (CS bio) in an emulsion with CFA (Difco). 200 ng pertussis toxin (List) per mouse in PBS was injected i.p. at the time of immunization and 48 h later. Adoptive transfer: Splenocytes were isolated from naïve 5-10-week-old Vα2.3/Vβ8.2 TCR transgenic mice and activated with 10 μg/ml of MBP Ac1-11 with or without rmIL-6 in 24-well plates at […] with irradiated B10.PL splenocytes (6×10^8 cells/well). After 72 hours, the cells were washed with PBS and 8×10^6 were injected i.p. into naïve B10.PL mice. Evaluation. The mice were evaluated daily for clinical signs of EAE. Mice were scored on scale of 0 to 6:0, no clinical disease; 1, limp/flaccid tail; 2, moderate hind limb weakness; 3. severe hind limb weakness; 4. complete hind limb paralysis; 5 quadriplegia or premoribund state; and 6, death.
DMSO was used as vehicle control. The cells were then adoptively transferred into naïve B10PL mice (disease incidence). Data are representative of multiple independent experiments.

[2] = tested on: IL-17 production in PBMCs from MS patients; assay type: cell-based, human; details: for IL-17 production in PBMCs from MS patients: activated with anti-CD3 for three or six days, different concentrations
Procedure: (§1) FIGS. 14A-14M show representative data for LLL12b suppression of human Th17 development and promotion of Treg development in CD4 T-cells from MS patients. FIGS. 14A, 14E, 14H, and 14K each shown representative data obtained in PBMCs from 22 treatment-naïve MS patients that were activated with αhCD3 plus rhIL-6 for 3 days, in the presence of 0.125 μM or 0.25 μM of LLL12b. DMSO was used as a vehicle control. IL-17 in supernatant was determined by ELISA. FIGS. 14B-14C, 14F, 14I, and 14L each shown representative data obtained in PBMCs from 22 treatment-naïve MS patients that were activated with αhCD3/CD28 plus rhTGFβ. rhIL-2 and RA for 3 days, in the presence of 0.125 μM of LLL12b. DMSO was used as vehicle control. CD25+FoxP3+CD4+ iTregs were determined by intracellular flow cytometry. Cells were gated CD45RA+CD4+ cells. […] IL-17 in each group was compared with one-way ANOVA. […] FIG. 14G the calculated IL-17/Treg ratio of each patient in LLL12b group and DMSO group and compared with Wilcoxon matched-pairs signed rank test. […] FIG. 14J the calculated percent decrease of IL-17/Treg ratio in LLL12b group compared to DMSO group. […] FIG. 14M patient numbers in different ranges of calculated percent decrease of IL-17/Treg.
FIGS. 12A-12B show representative data for the effect of a representative disclosed compound, LLL12b, on the production of proinflammatory cytokines in human peripheral blood mononuclear cells (PBMCs).
LLL12b reduces Teff/Treg ratio by suppressing human Th17 development and promoting Treg development of CD4 T cells from MS patients. Teff/Treg balance is critical for the normal function of the human immune system and increased Teff/Treg ratio favors autoimmunity. As IL-6/STAT3 signaling pathway is critical for the highly encephalitogenic Th17 cells while blocks the development of inducible Tregs (iTregs), we hypothesize that novel small molecule STAT3 inhibitor LLL12b will reduces Teff/Treg ratio by suppressing Th17 development and/or prompting iTreg development. Therefore, we determined the effects of LLL12b on IL-17 production and iTreg development of CD4 T cells from 22 treatment-naïve MS patients (FIGS. 14A-14M). Human PBMCs from 22 treatment-naïve MS patients were activated with αhCD3 for 3 days, in the presence of different concentrations of LLL12b or vehicle control (DMSO), IL-17 production in supernatants was determined by ELISA. As the myelin-reactive CD4 T cells in MS patients are predominantly from the memory T-cell compartment, we activated human PBMCs with αhCD3 to specifically activate effector/memory CD4 T cells.
To determine whether LLL12b treatment decreases Th17/Treg ratio in CD4 T cells from MS patients, the IL-17/Treg ratio of all 22 treatment-naïve MS patients treated with LLL12b was calculated and compared with those treated with DMSO (FIGS. 14G, 14J, and 14M). The data in Table 2 show the patient numbers in different ranges of percentage decrease of IL-17, percentage increase of iTregs or percentage decrease of IL-17/iTreg of 22 treatment-naïve MS patients treated with LLL12b compared to DMSO treatment.

[3] = in vivo; parameters: species or system mice
[4] = tested on: CD25+FoxP3+ iTregs of CD4 T cells from MS patients; test: iTreg development of CD4 T cells from MS patients (intracellular flow cytometry); assay type: cell-based, human
Procedure: as §1
Meanwhile, we determined the extent to which LLL12b promotes the development of iTregs of CD4 T cells from MS patients (FIGS. 14B-14C, 14F, 14I, and 14L). PBMCs from 22 treatment-naïve MS patients were activated with αhCD3/CD28 for 3 days, in the presence of TGFβ, IL-2 and trans-retinoic acid (iTreg differentiating condition). After 72 h of culture under iTreg differentiating condition, the total number of CD25+FoxP3+ iTregs in the CD4+CD45RA+ population increased from 40% in control group to 59% in the group treated with LLL12b.

[5] = 0.125 μM, 22 treatment-naïve MS patients
[6] = of 22 treatment-naïve MS patients, compared to DMSO
[7] = mouse, in vivo, mice, Intravenous 2 mg/kg
[8] = mouse, in vivo, mice, Oral 8 mg/kg

Question: Which “T cell encephalitogenicity in adoptive transfer” value [1] does the source give for NS(=O)(=O)c1cccc2c1C(=O)c1cccc(O)c1C2=O [LLL12] here?
Answer: inhibits T cell encephalitogenicity

Question: And the “IL-17 production in PBMCs from MS patients” value [2]?
Answer: suppress IL-17 production

Question: And the Tmax ([3]; mouse, in vivo)?
Answer: 5 to 10 min

Question: What about the time until cleared ([3]; mouse, in vivo) of the same compound?
Answer: ~60 min

Question: And the AUC ([3]; mouse, in vivo, ip, 20 mg/kg)?
Answer: 0.431 µM·h

Question: What about the AUC(0-inf) ([3]; mouse, in vivo, ip, 20 mg/kg) of the same compound?
Answer: 0.438 µM·h

Question: What about the Cmax ([3]; mouse, in vivo, ip, 20 mg/kg) of the same compound?
Answer: 922 nM

Question: And the Tmax ([3]; mouse, in vivo, ip, 20 mg/kg)?
Answer: 10 min

Question: What about the bioavailability ([3]; mouse, in vivo, ip, 20 mg/kg) of the same compound?
Answer: 29.1%

Question: What about the AUC ([3]; mouse, in vivo, iv, 5 mg/kg) of the same compound?
Answer: 0.373 µM·h

Question: What about the AUC(0-inf) ([3]; mouse, in vivo, iv, 5 mg/kg) of the same compound?
Answer: 0.377 µM·h

Question: What about the Cmax ([3]; mouse, in vivo, iv, 5 mg/kg) of the same compound?
Answer: 978 nM

Question: What about the Tmax ([3]; mouse, in vivo, iv, 5 mg/kg) of the same compound?
Answer: 10 min

Question: What about the bioavailability ([3]; mouse, in vivo, iv, 5 mg/kg) of the same compound?
Answer: 100%

Question: And the time until cleared ([3]; mouse, in vivo, po)?
Answer: about 30 minutes

Question: And the AUC ([3]; mouse, in vivo, po, 20 mg/kg)?
Answer: 0.0407 µM·h

Question: And the Cmax ([3]; mouse, in vivo, po, 20 mg/kg)?
Answer: 176 nM

Question: And the Tmax ([3]; mouse, in vivo, po, 20 mg/kg)?
Answer: 4.98 min

Question: What about the bioavailability ([3]; mouse, in vivo, po, 20 mg/kg) of the same compound?
Answer: 2.73%

Question: With CN(C)C(=O)Oc1cccc2c1C(=O)c1cccc(S(N)(=O)=O)c1C2=O [LLL12b] as the compound, how does the hIL-17 production ([2]; 0.125 μM and 0.25 μM, one MS patient, 3 days) read?
Answer: suppressed hIL-17 production

Question: What about the “IL-17 production in effector/memory human CD4 T cells” value [2, 5] of the same compound?
Answer: significantly suppressed IL-17 production

Question: What about the IL-17/Treg ratio ([2]; 22 treatment-naïve MS patients, compared to DMSO treated group) of the same compound?
Answer: significantly lower

Question: And the “IL-17 production in PBMCs from MS patients” value [2]?
Answer: suppress IL-17 production

Question: And the “patient numbers with % Decrease of IL-17 5-20%” value [2, 6]?
Answer: 11

Question: What about the “patient numbers with % Decrease of IL-17 20-40%” value [2, 6] of the same compound?
Answer: 7

Question: And the “patient numbers with % Decrease of IL-17/iTreg ratio 5-20%” value [2, 6]?
Answer: 5

Question: And the “patient numbers with % Decrease of IL-17/iTreg ratio 20-40%” value [2, 6]?
Answer: 13

Question: What about the “patient numbers with % Decrease of IL-17/iTreg ratio <5%” value [2, 6] of the same compound?
Answer: 1

Question: What about the “patient numbers with % Decrease of IL-17/iTreg ratio >40%” value [2, 6] of the same compound?
Answer: 3

Question: What about the “patient numbers with % Decrease of IL-17 <5%” value [2, 6] of the same compound?
Answer: 1

Question: What about the “patient numbers with % Decrease of IL-17 >40%” value [2, 6] of the same compound?
Answer: 3

Question: What about the “iTreg development of CD4 T cells from MS patients” value [4, 5] of the same compound?
Answer: significantly promotes iTreg development

Question: What about the “patient numbers with % Increase of iTregs 5-20%” value [4, 6] of the same compound?
Answer: 13

Question: And the “patient numbers with % Increase of iTregs 20-40%” value [4, 6]?
Answer: 3

Question: And the “patient numbers with % Increase of iTregs <5%” value [4, 6]?
Answer: 5

Question: And the “patient numbers with % Increase of iTregs >40%” value [4, 6]?
Answer: 1

Question: What about the “CD25+FoxP3+ iTregs in the CD4+CD45RA+ population” value ([4]; one MS patient, 72 h, iTreg differentiating condition, control group 40%) of the same compound?
Answer: 59%

Question: What about the “duration of sustained effective concentration” value ([3]; mice, IV) of the same compound?
Answer: about 4 hours

Question: And the “duration of sustained effective concentration” value ([3]; mice, PO)?
Answer: about 8 hours

Question: And the AUC(0-t) [3, 7]?
Answer: 892 ± 131 ng·h/mL

Question: And the Vd [3, 7]?
Answer: 12.4 ± 2.89 L/kg

Question: And the clearance [3, 7]?
Answer: 36.5 mL/min/kg

Question: And the half-life [3, 7]?
Answer: 233 ± 27 min

Question: What about the Cmax ([3]; mouse, in vivo, mice, Intravenous 2 mg/kg, read-out: Co/Cmax) of the same compound?
Answer: 2880 ± 935 ng/mL

Question: And the AUC(0-t) [3, 8]?
Answer: 1360 ± 396 ng·h/mL

Question: And the half-life [3, 8]?
Answer: 461 ± 115 min

Question: What about the Cmax ([3]; mouse, in vivo, mice, Oral 8 mg/kg, read-out: Co/Cmax) of the same compound?
Answer: 278 ± 93 ng/mL

Question: What about the Tmax ([3]; mouse, in vivo, mice, Oral 8 mg/kg, read-out: Tmax) of the same compound?
Answer: 11.4 ± 5.4 min

Question: And the bioavailability ([3]; mouse, in vivo, mice, printed in the Intravenous 2 mg/kg column, read-out: F (relative bioavailability))?
Answer: 38%
